From patent US20020137929A1, “1 - (3-heterocyclylphenyl) isothiourea, -isourea, -guanidine and -amidine herbicidal agents” (Intellectual Property Department, BASF Aktiengesellschaft, priority 1998, published 2002)

Tests used:
[1] = system: CASOB (Sicklepod); assay: Postemergence herbicidal evaluation; format: in vivo, Cassia obtusifolia
Method in brief: (§1)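 First, seedlings were raised for around two weeks. Next, test material in 50/50 acetone/water containing 0.5% TWEEN 20 was sprayed through a nozzle at 40 psi, equivalent to about 0.0156–0.500 kg/ha. Finally, after 4–5 weeks in the greenhouse, plants were rated 0–9.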

[2] = system: CHEAL (Lambsquarters, Common); assay: Postemergence herbicidal evaluation; format: in vivo, Chenopodium album
Method in brief: as §1

[3] = system: ECHCG (Barnyardgrass); assay: Postemergence herbicidal evaluation; format: in vivo, Echinochloa crus-galli
Method in brief: as §1

[4] = system: ORYSAT (Rice, Tebonnet); assay: Postemergence herbicidal evaluation; format: in vivo, Oryza sativa, (L.) Tebonnet
Method in brief: as §1

[5] = system: GALAP (Galium); assay: Preemergence herbicidal evaluation; format: in vivo, Galium aparine; details: rated 4-5 weeks after treatment
Method in brief: (§2)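 Each species is sown separately in potting soil over roughly an inch of soil before any emergence. The soil surface then receives an aqueous acetone spray delivering about 0.0156 to 0.500 kg/ha of compound. After four to five weeks, injury is scored from 0 to 9 relative to a control.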

[6] = system: SETVI (Foxtail, Green); assay: Preemergence herbicidal evaluation; format: in vivo, Setaria viridis; details: rated 4-5 weeks after treatment
Method in brief: as §2

[7] = system: GLXMAW (Soybean, Williams); assay: Preemergence herbicidal evaluation; format: in vivo, Glycine max, (L.) Merr. cv Williams; details: rated 4-5 weeks after treatment
Method in brief: as §2

[8] = system: ORYSAT (Rice, Tebonnet); assay: Preemergence herbicidal evaluation; format: in vivo, Oryza sativa, (L.) Tebonnet; details: rated 4-5 weeks after treatment
Method in brief: as §2

[9] = system: TRZAWR (Wheat, Winter, cv Riband); assay: Preemergence herbicidal evaluation; format: in vivo, Triticum aestivum; details: rated 4-5 weeks after treatment
Method in brief: as §2

[10] = system: ZEAMX (Corn, Field); assay: Preemergence herbicidal evaluation; format: in vivo, Zea mays; details: rated 4-5 weeks after treatment
Method in brief: as §2

[11] = system: CYPIR (Rice Flatsedge); assay: Preemergence weed control under flooded paddy conditions; format: in vivo, Cyperus iria; details: rated 3-4 weeks after treatment
Method in brief: (§3)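 Ratings on a 0-9 visual scale cover stand, vigor, malformation, size, chlorosis and overall appearance relative to a control, taken three to four weeks post-treatment. Application was into flood water over freshly sown silt loam at roughly 0.0313 to 0.500 kg/ha.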

[12] = system: SAGPY (Arrowhead (Pygmaea)); assay: as above; format: in vivo, Sagittaria pygmaea; details: rated 3-4 weeks after treatment
Method in brief: as §3

[13] = system: CYPSE (Flatsedge); assay: Postemergence weed control under flooded paddy conditions; format: in vivo, Cyperus serotinus; details: postemergence weeds, 3-4 weeks after treatment
Description: Results of herbicide evaluation are expressed on a rating scale (0-9). The scale is based upon a visual observation of plant stand, vigor, malformation, size, chlorosis and overall plant appearance as compared with a control.
Plastic containers containing weeds which are 3 to 5 cm tall and rice seedlings at the 1.5 to 2.5 leaf stage are flooded with water. The water is maintained at 1.5 to 3 cm above the soil surface for the duration of the experiment. Test compounds are applied as aqueous/ acetone mixtures 50/50 v/v directly into the flood water to provide the equivalent of about 0.0313 to 0.500 kg/ha of active ingredient. The treated containers are placed on greenhouse benches and cared for in accordance with conventional greenhouse procedures. Three to four weeks after treatment, the test is terminated and each container is examined and herbicidal effect rated according to the rating system provided in Example 37. The compounds evaluated are reported by compound number given in Example 37.

For `CCOC(=O)CN1C(=O)C(CC(=O)O)SC1=Nc1cc(-n2c(=O)cc(C(F)(F)F)n(C)c2=O)c(Cl)cc1Cl` (stereo not shown) [Compound 33, 2-{{2,4-Dichloro-5-[3,6-dihydro-3-methyl-2,6-dioxo-4-(trifluoromethyl)-1(2H)-pyrimidinyl]phenyl}-imino}-4-oxo-3,5-thiazolidinediacetic acid, 3-ethyl ester], the “Postemergence herbicidal rating CASOB” value ([1]; Rate 0.0158 kg/ha) was 0.0, the “Postemergence herbicidal rating CASOB” value ([1]; Rate 0.0315 kg/ha) was 1.0 and the “Postemergence herbicidal rating CASOB” value ([1]; Rate 0.0630 kg/ha) was 5.0. The “Postemergence herbicidal rating CHEAL” value ([2]; Rate 0.0158 kg/ha) was 9.0, the “Postemergence herbicidal rating CHEAL” value ([2]; Rate 0.0315 kg/ha) was 9.0 and the “Postemergence herbicidal rating CHEAL” value ([2]; Rate 0.0630 kg/ha) was 9.0. The “Postemergence herbicidal rating ECHCG” value ([3]; Rate 0.0158 kg/ha) was 2.0, the “Postemergence herbicidal rating ECHCG” value ([3]; Rate 0.0315 kg/ha) was 9.0 and the “Postemergence herbicidal rating ECHCG” value ([3]; Rate 0.0630 kg/ha) was 9.0. The “Postemergence herbicidal rating ORYSAT” value ([4]; Rate 0.0158 kg/ha) was 0.5, the “Postemergence herbicidal rating ORYSAT” value ([4]; Rate 0.0315 kg/ha) was 2.0 and the “Postemergence herbicidal rating ORYSAT” value ([4]; Rate 0.0630 kg/ha) was 2.0. The “Preemergence herbicidal rating GALAP” value ([5]; rate 0.0156 kg/ha) was 0.0, the “Preemergence herbicidal rating GALAP” value ([5]; rate 0.0313 kg/ha) was 0.0 and the “Preemergence herbicidal rating GALAP” value ([5]; rate 0.0625 kg/ha) was 0.0. For the same compound, the “Preemergence herbicidal rating SETVI” value ([6]; rate 0.0156 kg/ha) was 0.0, the “Preemergence herbicidal rating SETVI” value ([6]; rate 0.0313 kg/ha) was 0.0 and the “Preemergence herbicidal rating SETVI” value ([6]; rate 0.0625 kg/ha) was 3.0. The “Preemergence herbicidal rating SETVI” value ([6]; rate 0.1250 kg/ha) was 3.0, the “Preemergence herbicidal rating SETVI” value ([6]; rate 0.2500 kg/ha) was 9.0 and the “Preemergence herbicidal rating GLXMAW” value ([7]; rate 0.0156 kg/ha) was 0.0. For the same compound, the “Preemergence herbicidal rating GLXMAW” value ([7]; rate 0.0313 kg/ha) was 0.0, the “Preemergence herbicidal rating GLXMAW” value ([7]; rate 0.0625 kg/ha) was 0.0 and the “Preemergence herbicidal rating GLXMAW” value ([7]; rate 0.1250 kg/ha) was 0.0. The “Preemergence herbicidal rating GLXMAW” value ([7]; rate 0.2500 kg/ha) was 0.0, the “Preemergence herbicidal rating ORYSAT” value ([8]; rate 0.0156 kg/ha) was 0.0 and the “Preemergence herbicidal rating ORYSAT” value ([8]; rate 0.0313 kg/ha) was 0.0. For the same compound, the “Preemergence herbicidal rating ORYSAT” value ([8]; rate 0.0625 kg/ha) was 0.0, the “Preemergence herbicidal rating ORYSAT” value ([8]; rate 0.1250 kg/ha) was 0.0 and the “Preemergence herbicidal rating ORYSAT” value ([8]; rate 0.2500 kg/ha) was 0.0. For the same compound, the “Preemergence herbicidal rating TRZAWR” value ([9]; rate 0.0156 kg/ha) was 0.0, the “Preemergence herbicidal rating TRZAWR” value ([9]; rate 0.0313 kg/ha) was 0.0 and the “Preemergence herbicidal rating TRZAWR” value ([9]; rate 0.0625 kg/ha) was 0.0. The “Preemergence herbicidal rating TRZAWR” value ([9]; rate 0.1250 kg/ha) was 0.0, the “Preemergence herbicidal rating TRZAWR” value ([9]; rate 0.2500 kg/ha) was 0.0 and the “Preemergence herbicidal rating ZEAMX” value ([10]; rate 0.0156 kg/ha) was 0.0. For the same compound, the “Preemergence herbicidal rating ZEAMX” value ([10]; rate 0.0313 kg/ha) was 0.0, the “Preemergence herbicidal rating ZEAMX” value ([10]; rate 0.0625 kg/ha) was 0.0 and the “Preemergence herbicidal rating ZEAMX” value ([10]; rate 0.1250 kg/ha) was 0.0. For the same compound, the “Preemergence herbicidal rating ZEAMX” value ([10]; rate 0.2500 kg/ha) was 0.0, the “Herbicidal rating CYPIR” value ([11]; 0.2500 kg/ha) was 0.0 and the “Herbicidal rating SAGPY” value ([12]; 0.2500 kg/ha) was 0.0. The “Herbicidal rating CYPSE” value ([13]; rate 0.2500 kg/ha) was 0.0.
For `CCOC(=O)CN1CC(=O)N(CC(=O)OCC)C1=Nc1cc(-n2c(=O)cc(C(F)(F)F)n(C)c2=O)c(F)cc1Cl` [Compound 34, 2-{{2-Chloro-5-[3,6-dihydro-3-methyl-2,6-dioxo-4-(trifluoromethyl)-1(2H)-pyrimidinyl]-4-fluoro-phenyl}imino}-4-oxo-1,3-imidazolidinediacetic acid, diethyl ester], the “Postemergence herbicidal rating CASOB” value ([1]; Rate 0.0158 kg/ha) was 0.0, the “Postemergence herbicidal rating CASOB” value ([1]; Rate 0.0315 kg/ha) was 0.0 and the “Postemergence herbicidal rating CASOB” value ([1]; Rate 0.0630 kg/ha) was 0.0. For the same compound, the “Postemergence herbicidal rating CHEAL” value ([2]; Rate 0.0158 kg/ha) was 7.0, the “Postemergence herbicidal rating CHEAL” value ([2]; Rate 0.0315 kg/ha) was 9.0 and the “Postemergence herbicidal rating CHEAL” value ([2]; Rate 0.0630 kg/ha) was 9.0. The “Postemergence herbicidal rating ECHCG” value ([3]; Rate 0.0158 kg/ha) was 0.0, the “Postemergence herbicidal rating ECHCG” value ([3]; Rate 0.0315 kg/ha) was 0.0 and the “Postemergence herbicidal rating ECHCG” value ([3]; Rate 0.0630 kg/ha) was 1.0. The “Postemergence herbicidal rating ORYSAT” value ([4]; Rate 0.0158 kg/ha) was 1.0, the “Postemergence herbicidal rating ORYSAT” value ([4]; Rate 0.0315 kg/ha) was 2.0 and the “Postemergence herbicidal rating ORYSAT” value ([4]; Rate 0.0630 kg/ha) was 3.5. For the same compound, the “Preemergence herbicidal rating GALAP” value ([5]; rate 0.0313 kg/ha) was 0.0, the “Preemergence herbicidal rating GALAP” value ([5]; rate 0.0625 kg/ha) was 7.0 and the “Preemergence herbicidal rating GALAP” value ([5]; rate 0.1250 kg/ha) was 7.0. For the same compound, the “Preemergence herbicidal rating GALAP” value ([5]; rate 0.2500 kg/ha) was 9.0, the “Preemergence herbicidal rating SETVI” value ([6]; rate 0.0313 kg/ha) was 3.0 and the “Preemergence herbicidal rating SETVI” value ([6]; rate 0.0625 kg/ha) was 9.0. For the same compound, the “Preemergence herbicidal rating SETVI” value ([6]; rate 0.1250 kg/ha) was 9.0, the “Preemergence herbicidal rating SETVI” value ([6]; rate 0.2500 kg/ha) was 9.0 and the “Preemergence herbicidal rating GLXMAW” value ([7]; rate 0.0313 kg/ha) was 0.0. For the same compound, the “Preemergence herbicidal rating GLXMAW” value ([7]; rate 0.0625 kg/ha) was 0.0, the “Preemergence herbicidal rating GLXMAW” value ([7]; rate 0.1250 kg/ha) was 0.0 and the “Preemergence herbicidal rating GLXMAW” value ([7]; rate 0.2500 kg/ha) was 0.0. The “Preemergence herbicidal rating ORYSAT” value ([8]; rate 0.0313 kg/ha) was 0.0, the “Preemergence herbicidal rating ORYSAT” value ([8]; rate 0.0625 kg/ha) was 0.0 and the “Preemergence herbicidal rating ORYSAT” value ([8]; rate 0.1250 kg/ha) was 2.0. For the same compound, the “Preemergence herbicidal rating ORYSAT” value ([8]; rate 0.2500 kg/ha) was 5.0, the “Preemergence herbicidal rating TRZAWR” value ([9]; rate 0.0313 kg/ha) was 0.0 and the “Preemergence herbicidal rating TRZAWR” value ([9]; rate 0.0625 kg/ha) was 0.0. For the same compound, the “Preemergence herbicidal rating TRZAWR” value ([9]; rate 0.1250 kg/ha) was 1.0, the “Preemergence herbicidal rating TRZAWR” value ([9]; rate 0.2500 kg/ha) was 5.0 and the “Preemergence herbicidal rating ZEAMX” value ([10]; rate 0.0313 kg/ha) was 0.0. The “Preemergence herbicidal rating ZEAMX” value ([10]; rate 0.0625 kg/ha) was 3.0, the “Preemergence herbicidal rating ZEAMX” value ([10]; rate 0.1250 kg/ha) was 7.0 and the “Preemergence herbicidal rating ZEAMX” value ([10]; rate 0.2500 kg/ha) was 9.0. For the same compound, the “Herbicidal rating CYPIR” value ([11]; 0.0313 kg/ha) was 0.0, the “Herbicidal rating CYPIR” value ([11]; 0.0625 kg/ha) was 0.0 and the “Herbicidal rating CYPIR” value ([11]; 0.1250 kg/ha) was 0.0. The “Herbicidal rating CYPIR” value ([11]; 0.2500 kg/ha) was 0.0, the “Herbicidal rating SAGPY” value ([12]; 0.0313 kg/ha) was 0.0 and the “Herbicidal rating SAGPY” value ([12]; 0.0625 kg/ha) was 0.0. The “Herbicidal rating SAGPY” value ([12]; 0.1250 kg/ha) was 0.0, the “Herbicidal rating SAGPY” value ([12]; 0.2500 kg/ha) was 0.0 and the “Herbicidal rating CYPSE” value ([13]; rate 0.0313 kg/ha) was 0.0. The “Herbicidal rating CYPSE” value ([13]; rate 0.0625 kg/ha) was 0.0, the “Herbicidal rating CYPSE” value ([13]; rate 0.1250 kg/ha) was 0.0 and the “Herbicidal rating CYPSE” value ([13]; rate 0.2500 kg/ha) was 0.0.
